Laboratory results from patent US8318799B2, “Therapeutic agent for substance dependence” (National University Corporation Kyushu University, priority 2004, dated 2012).

Key:
male Wister/ST rats [1] = test: methamphetamine-seeking behavior induced by forced administration of a low dose of methamphetamine (drug self-administration procedure, after extinction); assay type: in vivo, rat
Source text: (§1) First, an experimental animal is allowed to learn the drug self-administration behavior of pressing a lever to attain a substance. The animal is given a substance-containing solution simultaneously with a light-tone stimulus. After the animal is allowed to learn the substance self-administration behavior, the substance-containing solution is replaced by physiological saline. The behavior of eagerly pressing the lever for acquiring the substance comes to be observed in the experimental animal having learned the substance self-administration behavior. This behavior is regarded as substance-seeking behavior. […] However, the substance-seeking behavior will recur by the same light-tone stimulus (drug-associated stimuli) used during the self-administration training to the experimental animal or by administrating a substance inducing the central stimulant effect. This experimental system was used to examine the effect of various compounds.
(§2) Using methamphetamine as an addictive substance, the following experiments were carried out according to a method described in Neuropsychopharmacology, 29, 1470-1478 (2004).
(§3) A catheter for self-administration of methamphetamine (inner diameter of 0.5 mm, outer diameter of 1.0 mm) was inserted into the right jugular vein of male Wister/ST rats (250 to 350 g), and the end of the catheter was anchored to just outside the right atrium. An operant box used in the experiment was equipped with 2 levers. One is an active lever by which when pressed once (fixed-ratio 1 (FR1)), infusions of a very low dose of methamphetamine (0.02 mg per injection) was paired with onset of a 6-sec tone (70 dB/7 kHz) and light (300 lux) compound stimulus.
After the animal was allowed to get methamphetamine self-administration behavior (methamphetamine-taking behavior) by the self-administration experiment for 10 days (2 hours per session), physiological saline was substituted for methamphetamine, to carry out an extinction process for 5 days (1 hour per session without drug-associated cue). […]

[2] = Eur. J. Pharmacol. 421, 181-189 (2001); cited from earlier work
male Wister/ST rats [3] = test: influence on methamphetamine-taking behavior (methamphetamine self-administration); assay type: in vivo, rat; details: 1.0 mg/kg intraperitoneally; FIG. 5
Source text: FIG. 5 is a graph showing the influence of the compound of the present invention on methamphetamine self-administration.
as §3
(§4) After the animal was allowed to get methamphetamine self-administration behavior (methamphetamine-taking behavior) by the self-administration experiment for 10 days (2 hours per session), physiological saline was substituted for methamphetamine, to carry out an extinction process for 5 days (1 hour per session without drug-associated cue).
For examining the influence of the compound of the present invention on methamphetamine-taking behavior, 1.0 mg/kg of the compound of the present invention was administered intraperitoneally.

male Wister/ST rats [4] = test: influence on occurrence of substance-seeking behavior by the compound itself; assay type: in vivo, rat; details: high dose 10 mg/kg i.p.; FIG. 6
male Wister/ST rats [5] = test: methamphetamine-seeking behavior induced by drug-associated cue (drug self-administration procedure, after extinction); assay type: in vivo, rat; details: for antagonism in cue-induced methamphetamine-seeking behavior on coadministration with the compound of the present invention: 30 minutes before cue, FIG. 7
Source text: as §1, §2, §3, §4
On day 6 of the extinction process, substance-seeking behavior (“craving”) was induced by drug-associated cue (tone and light) or by administering a low dose of methamphetamine (1.0 mg/kg, intraperitoneal (i.p.) administration).
Thirty minutes before this stimulation with the drug-associated cue or by the administration of a low dose of methamphetamine, […] administration of the compound of the present invention (0.32, 1.0 mg/kg, i.p.) was carried out, and a change in the methamphetamine-seeking behavior induced by drug-associated cue or by forced administration of methamphetamine was observed. […]

CCCNC(CCC)Cc1cc2ccccc2o1 (single isomer, unassigned; (-)) [the compound of the present invention, (−)-1-(benzofuran-2-yl)-2-propylaminopentane]
methamphetamine-seeking behavior induced by forced administration of methamphetamine (male Wister/ST rats [1]; repeated administration 1.0 mg/kg i.p. in the extinction process for 5 days, FIG. 4): suppressed significantly | methamphetamine-seeking behavior (number of active lever-pressings, 30 minutes) induced by forced administration of methamphetamine (male Wister/ST rats [1]; single administration 0.32, 1.0 mg/kg i.p., 30 minutes before methamphetamine 1.0 mg/kg i.p., day 6 of extinction, FIG. 2): suppressed significantly and dose-dependently | reduction in spontaneous motor activity induced by reserpine [2]: improves | influence on methamphetamine-taking behavior (number of active lever pressings for self-administration) (male Wister/ST rats [3]): did not exert any influence | occurrence of methamphetamine-seeking behavior after the compound alone (male Wister/ST rats [4]): although weak, caused methamphetamine-seeking behavior | methamphetamine-seeking behavior induced by drug-associated cue (male Wister/ST rats [5]; repeated administration 1.0 mg/kg i.p. in the extinction process for 5 days, FIG. 3): suppressed significantly | methamphetamine-seeking behavior (number of active lever-pressings, 30 minutes) induced by drug-associated cue (male Wister/ST rats [5]; single administration 0.32, 1.0 mg/kg i.p., 30 minutes before stimulation, day 6 of extinction, FIG. 1): suppressed significantly and dose-dependently

CN1CCc2cc(Cl)c(O)cc2[C@@H](c2ccccc2)C1.Cl [SCH23390, R-(+)-7-chloro-8-hydroxy-3-methyl-1-phenyl-2,3,4,5-tetrahydro-1H-3-benza zepine hydrochloride, reference compound]
antagonism in cue-induced methamphetamine-seeking behavior on coadministration with the compound of the present invention (male Wister/ST rats [5]; SCH23390 0.0001 mg/kg s.c. with the compound of the present invention (0.32, 1.0 mg/kg i.p.)): showed a tendency to be antagonized

CCN1CCCC1CNC(=O)c1cc(S(=O)(=O)CC)ccc1OC (stereo not shown) [sultopride, reference compound]
antagonism in methamphetamine-induced methamphetamine-seeking behavior on coadministration with the compound of the present invention (male Wister/ST rats [1]; sultopride 10 mg/kg i.p. with the compound of the present invention (0.32, 1.0 mg/kg i.p.), 30 minutes before low dose of methamphetamine, FIG. 8): not | antagonism in cue-induced methamphetamine-seeking behavior on coadministration with the compound of the present invention (male Wister/ST rats [5]; sultopride 10 mg/kg i.p. with the compound of the present invention (0.32, 1.0 mg/kg i.p.)): not
